Here are results for 17 compounds from US9682985B2, “(Indazol-4-yl) hexahydropyrrolopyrrolones and methods of use” (AbbVie Inc., priority 2015, dated 2017).

This experiment deals with T1, recombinant human Nav1.7 (Homo sapiens, UniProt Q15858).
T1 construct: expressed in transfected cells; host or cells: HEK293
T1 sequence (Q15858 whole entry): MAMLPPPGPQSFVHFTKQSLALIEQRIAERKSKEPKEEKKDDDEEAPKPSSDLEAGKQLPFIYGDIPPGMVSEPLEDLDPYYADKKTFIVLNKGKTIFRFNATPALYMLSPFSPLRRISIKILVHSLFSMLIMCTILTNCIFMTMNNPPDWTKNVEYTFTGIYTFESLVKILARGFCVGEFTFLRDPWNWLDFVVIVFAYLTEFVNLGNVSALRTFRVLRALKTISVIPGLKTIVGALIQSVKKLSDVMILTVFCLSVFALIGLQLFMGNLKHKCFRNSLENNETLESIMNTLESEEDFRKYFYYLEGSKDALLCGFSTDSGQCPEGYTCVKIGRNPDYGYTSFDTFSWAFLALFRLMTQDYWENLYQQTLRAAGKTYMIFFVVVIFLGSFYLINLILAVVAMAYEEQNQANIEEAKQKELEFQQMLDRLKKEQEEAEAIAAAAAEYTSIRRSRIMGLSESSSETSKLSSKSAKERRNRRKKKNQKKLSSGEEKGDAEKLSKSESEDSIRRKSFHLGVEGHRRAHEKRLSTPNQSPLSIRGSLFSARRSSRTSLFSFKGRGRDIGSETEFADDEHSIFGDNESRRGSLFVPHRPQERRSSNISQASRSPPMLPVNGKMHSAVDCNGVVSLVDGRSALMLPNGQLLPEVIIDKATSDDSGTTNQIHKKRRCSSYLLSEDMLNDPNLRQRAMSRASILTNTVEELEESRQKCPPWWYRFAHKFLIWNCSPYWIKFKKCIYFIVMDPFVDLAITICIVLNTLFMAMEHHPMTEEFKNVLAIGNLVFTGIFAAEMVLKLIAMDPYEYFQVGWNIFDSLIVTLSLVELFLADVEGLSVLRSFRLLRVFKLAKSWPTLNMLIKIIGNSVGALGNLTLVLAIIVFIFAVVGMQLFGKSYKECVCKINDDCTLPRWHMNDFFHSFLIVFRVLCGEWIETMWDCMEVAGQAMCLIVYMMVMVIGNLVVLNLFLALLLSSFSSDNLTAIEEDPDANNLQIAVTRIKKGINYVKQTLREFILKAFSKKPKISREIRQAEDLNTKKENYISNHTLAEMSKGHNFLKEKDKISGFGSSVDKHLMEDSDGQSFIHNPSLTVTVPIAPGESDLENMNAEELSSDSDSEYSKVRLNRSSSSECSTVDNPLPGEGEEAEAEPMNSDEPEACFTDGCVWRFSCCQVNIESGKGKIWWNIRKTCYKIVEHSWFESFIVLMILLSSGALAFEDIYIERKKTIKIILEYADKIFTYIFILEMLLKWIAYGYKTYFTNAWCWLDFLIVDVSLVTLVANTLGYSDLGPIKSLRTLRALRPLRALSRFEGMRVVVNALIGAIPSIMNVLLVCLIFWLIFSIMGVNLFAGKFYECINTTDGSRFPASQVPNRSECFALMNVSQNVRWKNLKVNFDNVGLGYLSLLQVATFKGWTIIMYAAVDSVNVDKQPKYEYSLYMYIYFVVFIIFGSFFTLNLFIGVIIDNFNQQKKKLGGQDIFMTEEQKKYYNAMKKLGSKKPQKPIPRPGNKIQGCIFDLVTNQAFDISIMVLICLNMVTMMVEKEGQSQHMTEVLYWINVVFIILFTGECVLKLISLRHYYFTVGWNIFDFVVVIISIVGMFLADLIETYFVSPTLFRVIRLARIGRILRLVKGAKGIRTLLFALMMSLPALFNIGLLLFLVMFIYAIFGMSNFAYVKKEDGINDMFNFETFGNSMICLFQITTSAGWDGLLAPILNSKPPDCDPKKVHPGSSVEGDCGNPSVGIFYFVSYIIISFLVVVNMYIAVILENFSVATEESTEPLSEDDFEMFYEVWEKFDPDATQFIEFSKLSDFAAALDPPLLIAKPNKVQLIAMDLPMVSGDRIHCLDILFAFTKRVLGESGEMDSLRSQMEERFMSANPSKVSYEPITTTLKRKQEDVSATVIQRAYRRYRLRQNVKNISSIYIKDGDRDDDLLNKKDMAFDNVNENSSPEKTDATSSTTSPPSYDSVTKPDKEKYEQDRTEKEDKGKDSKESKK
In words: FRET-based membrane potential assay, Nav1.7. The settings on record: HEK293 cells expressing recombinant human Nav1.7; veratridine + scorpion venom depolarization. The experiment is classed as cell-based.
Turning to `O=C(NCc1cnco1)N1C[C@H]2CN(c3cccc4c3cnn4-c3ccccc3F)C(=O)[C@H]2C1` (relative stereo) [Example 13, rel-(3aR,6aR)-5-[1-(2-fluorophenyl)-1H-indazol-4-yl]-N-(1,3-oxazol-5-ylmethyl)-4-oxohexahydropyrrolo[3,4-c]pyrrole-2(1H)-carboxamide], the IC50 was 11.1 µM.
Take `CN(C)C(=O)N1C[C@H]2CN(c3cccc4c3cnn4-c3ccccc3F)C(=O)[C@H]2C1` (relative stereo) [Example 15, rel-(3aR,6aR)-5-[1-(2-fluorophenyl)-1H-indazol-4-yl]-N,N-dimethyl-4-oxohexahydropyrrolo[3,4-c]pyrrole-2(1H)-carboxamide]: the IC50 is 7.57 µM.
As for `CC(=O)N1C[C@@H]2CN(c3cccc4c3cnn4-c3ccccc3F)C(=O)[C@H]2C1` (relative stereo) [Example 17, rel-(3aR,6aR)-5-acetyl-2-[1-(2-fluorophenyl)-1H-indazol-4-yl]hexahydropyrrolo[3,4-c]pyrrol-1(2H)-one], the IC50 was 8.93 µM.
`CC(C)C(=O)N1C[C@@H]2CN(c3cccc4c3cnn4-c3ccccc3F)C(=O)[C@@H]2C1` [Example 20, (3aR,6aS)-2-[1-(2-fluorophenyl)-1H-indazol-4-yl]-5-isobutyrylhexahydropyrrolo[3,4-c]pyrrol-1(2H)-one]: the IC50 came to 4.48 µM.
Regarding `CS(=O)(=O)N1C[C@@H]2CN(c3cccc4c3cnn4-c3ccccc3F)C(=O)[C@@H]2C1` [Example 22, (3aS,6aS)-2-[1-(2-fluorophenyl)-1H-indazol-4-yl]-5-(methylsulfonyl)hexahydropyrrolo[3,4-c]pyrrol-1(2H)-one], the IC50 turned out to be 6.72 µM.
Then `O=C1[C@@H]2CN(S(=O)(=O)c3cccnc3)C[C@@H]2CN1c1cccc2c1cnn2-c1ccccc1F` [Example 27, (3aS,6aS)-2-[1-(2-fluorophenyl)-1H-indazol-4-yl]-5-(pyridin-3-ylsulfonyl)hexahydropyrrolo[3,4-c]pyrrol-1(2H)-one], with 3.62 µM.
On to `O=C1[C@@H]2CN(S(=O)(=O)C3CC3)C[C@@H]2CN1c1cccc2c1cnn2-c1ccccc1F` [Example 28, (3aS,6aS)-5-(cyclopropylsulfonyl)-2-[1-(2-fluorophenyl)-1H-indazol-4-yl]hexahydropyrrolo[3,4-c]pyrrol-1(2H)-one], for which the IC50 came to 3.82 µM.
As to `CC(C)(C)OC(=O)N1CCC(S(=O)(=O)N2CC3CN(c4cccc5c4cnn5-c4ccccc4F)C(=O)C3C2)CC1` [Example 30, tert-butyl 4-{[(3aS,6aS)-5-[1-(2-fluorophenyl)-1H-indazol-4-yl]-4-oxohexahydropyrrolo[3,4c]-pyrrol-2(1H)-yl]sulfonyl}piperidine-1-carboxylate], the IC50 came to 3.62 µM.
On to `Cc1noc(C)c1CC(=O)N1C[C@@H]2CN(c3cccc4c3cnn4-c3ccccc3F)C(=O)[C@@H]2C1` [Example 33, (3aR,6aS)-5-[(3,5-dimethyl-1,2-oxazol-4-yl)acetyl]-2-[1-(2-fluorophenyl)-1H-indazol-4-yl]hexahydropyrrolo[3,4-c]pyrrol-1(2H)-one], for which the IC50 was determined as 13.3 µM.
Take `C[C@H](O)CC(=O)N1C[C@@H]2CN(c3cccc4c3cnn4-c3ccccc3F)C(=O)[C@@H]2C1` [Example 36, (3aR,6aS)-2-[1-(2-fluorophenyl)-1H-indazol-4-yl]-5-[(3S)-3-hydroxybutanoyl]hexahydropyrrolo[3,4-c]pyrrol-1(2H)-one]: the IC50 was 11.5 µM.
As to `C[C@@H](O)CC(=O)N1C[C@H]2CN(c3cccc4c3cnn4-c3ccccc3F)C(=O)[C@H]2C1` [Example 38, (3aS,6aR)-2-[1-(2-fluorophenyl)-1H-indazol-4-yl]-5-[(3R)-3-hydroxybutanoyl]hexahydropyrrolo[3,4-c]pyrrol-1(2H)-one], the IC50 is 6.4 µM.
With `C[C@@H](O)CC(=O)N1C[C@@H]2CN(c3cccc4c3cnn4-c3ccccc3F)C(=O)[C@@H]2C1` [Example 39, (3aR,6aS)-2-[1-(2-fluorophenyl)-1H-indazol-4-yl]-5-[(3R)-3-hydroxybutanoyl]hexahydropyrrolo[3,4-c]pyrrol-1(2H)-one], the IC50 came to 14.6 µM.
Turning to `O=C(C1CC1(F)F)N1C[C@@H]2CN(c3cccc4c3cnn4-c3ccccc3F)C(=O)[C@@H]2C1` (stereo partly drawn) [Example 40, (3aR,6aS)-5-[(2,2-difluorocyclopropyl)carbonyl]-2-[1-(2-fluorophenyl)-1H-indazol-4-yl]hexahydropyrrolo[3,4-c]pyrrol-1(2H)-one], the IC50 came to 10.4 µM.
For `CC(C)(O)C(=O)N1C[C@H]2CN(c3cccc4c3cnn4-c3ccccc3F)C(=O)[C@H]2C1` [Example 41, (3aS,6aR)-2-[1-(2-fluorophenyl)-1H-indazol-4-yl]-5-(2-hydroxy-2-methylpropanoyl)hexahydropyrrolo[3,4-c]pyrrol-1(2H)-one], the IC50 stood at 13.1 µM.
With `O=C1[C@H]2CN(C(=O)C3(O)CC3)C[C@H]2CN1c1cccc2c1cnn2-c1ccccc1F` [Example 42, (3aS,6aR)-2-[1-(2-fluorophenyl)-1H-indazol-4-yl]-5-[(1-hydroxycyclopropyl)carbonyl]hexahydropyrrolo[3,4-c]pyrrol-1(2H)-one], the IC50 is 8.89 µM.
Then `CC(C)(O)C(=O)N1CC[C@@H]2CN(c3cccc4c3cnn4-c3ccccc3F)C(=O)[C@@H]21` [Example 47, (3aR,6aR)-5-[1-(2-fluorophenyl)-1H-indazol-4-yl]-1-(2-hydroxy-2-methylpropanoyl)hexahydropyrrolo[3,4-b]pyrrol-6(1H)-one], with 3.06 µM; and `O=C1[C@H]2[C@H](CCN2C(=O)C2(O)CC2)CN1c1cccc2c1cnn2-c1ccccc1F` [Example 48, (3aR,6aR)-5-[1-(2-fluorophenyl)-1H-indazol-4-yl]-1-[(1-hydroxycyclopropyl)carbonyl]hexahydropyrrolo[3,4-b]pyrrol-6(1H)-one], with 0.593 µM.
